Target: T1, RdsA (YhiN) (Escherichia coli, UniProt P37631)
T1 sequence (P37631 1-400): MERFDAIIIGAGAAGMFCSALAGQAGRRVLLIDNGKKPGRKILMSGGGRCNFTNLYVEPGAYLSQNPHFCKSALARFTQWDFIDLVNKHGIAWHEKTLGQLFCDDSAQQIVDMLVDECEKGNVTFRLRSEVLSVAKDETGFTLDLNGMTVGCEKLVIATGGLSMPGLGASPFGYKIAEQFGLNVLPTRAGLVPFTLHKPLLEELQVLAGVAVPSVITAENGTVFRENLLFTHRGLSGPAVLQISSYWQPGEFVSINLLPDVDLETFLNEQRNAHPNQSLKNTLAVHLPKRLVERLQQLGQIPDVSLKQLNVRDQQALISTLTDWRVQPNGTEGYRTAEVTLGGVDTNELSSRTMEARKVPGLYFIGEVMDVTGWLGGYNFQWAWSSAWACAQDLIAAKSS
Assay: UV/visible spectrum of purified protein
Assay type: binding
Settings: as purified; noncovalent

Cc1cc2nc3c(=O)[nH]c(=O)nc-3n(C[C@H](O)[C@H](O)[C@H](O)COP(=O)(O)OP(=O)(O)OC[C@H]3O[C@@H](n4cnc5c(N)ncnc54)[C@H](O)[C@@H]3O)c2cc1C [FAD]
holoprotein fraction (oxidized flavin): 61%

Source: article PMC11317573 (Proceedings of the National Academy of Sciences of the …, 2024)
